Measured values from ChEMBL document CHEMBL3991601, “The target landscape of clinical kinase drugs” (Science, 2017).
The source made the active and inactive calls.

Key:
[1] = biological target: 5'-AMP-activated protein kinase catalytic subunit alpha-1 (Homo sapiens, UniProt Q13131)
[2] = biological target: Ribosomal protein S6 kinase alpha-4 (Homo sapiens, UniProt O75676)
ADP/ATP translocase 2 = biological target: T1, ADP/ATP translocase 2 (Homo sapiens, UniProt P05141)
T1 sequence (P05141 whole entry): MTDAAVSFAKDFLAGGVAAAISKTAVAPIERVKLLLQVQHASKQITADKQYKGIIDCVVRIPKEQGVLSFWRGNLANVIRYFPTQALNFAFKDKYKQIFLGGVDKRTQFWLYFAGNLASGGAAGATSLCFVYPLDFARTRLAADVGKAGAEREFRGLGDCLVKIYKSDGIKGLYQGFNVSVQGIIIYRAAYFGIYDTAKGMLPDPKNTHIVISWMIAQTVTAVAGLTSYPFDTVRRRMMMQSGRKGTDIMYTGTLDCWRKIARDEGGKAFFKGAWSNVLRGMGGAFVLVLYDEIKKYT

[3] = biological target: T2, Serine/threonine-protein kinase LATS1 (Homo sapiens, UniProt O95835)
T2 sequence (O95835 whole entry): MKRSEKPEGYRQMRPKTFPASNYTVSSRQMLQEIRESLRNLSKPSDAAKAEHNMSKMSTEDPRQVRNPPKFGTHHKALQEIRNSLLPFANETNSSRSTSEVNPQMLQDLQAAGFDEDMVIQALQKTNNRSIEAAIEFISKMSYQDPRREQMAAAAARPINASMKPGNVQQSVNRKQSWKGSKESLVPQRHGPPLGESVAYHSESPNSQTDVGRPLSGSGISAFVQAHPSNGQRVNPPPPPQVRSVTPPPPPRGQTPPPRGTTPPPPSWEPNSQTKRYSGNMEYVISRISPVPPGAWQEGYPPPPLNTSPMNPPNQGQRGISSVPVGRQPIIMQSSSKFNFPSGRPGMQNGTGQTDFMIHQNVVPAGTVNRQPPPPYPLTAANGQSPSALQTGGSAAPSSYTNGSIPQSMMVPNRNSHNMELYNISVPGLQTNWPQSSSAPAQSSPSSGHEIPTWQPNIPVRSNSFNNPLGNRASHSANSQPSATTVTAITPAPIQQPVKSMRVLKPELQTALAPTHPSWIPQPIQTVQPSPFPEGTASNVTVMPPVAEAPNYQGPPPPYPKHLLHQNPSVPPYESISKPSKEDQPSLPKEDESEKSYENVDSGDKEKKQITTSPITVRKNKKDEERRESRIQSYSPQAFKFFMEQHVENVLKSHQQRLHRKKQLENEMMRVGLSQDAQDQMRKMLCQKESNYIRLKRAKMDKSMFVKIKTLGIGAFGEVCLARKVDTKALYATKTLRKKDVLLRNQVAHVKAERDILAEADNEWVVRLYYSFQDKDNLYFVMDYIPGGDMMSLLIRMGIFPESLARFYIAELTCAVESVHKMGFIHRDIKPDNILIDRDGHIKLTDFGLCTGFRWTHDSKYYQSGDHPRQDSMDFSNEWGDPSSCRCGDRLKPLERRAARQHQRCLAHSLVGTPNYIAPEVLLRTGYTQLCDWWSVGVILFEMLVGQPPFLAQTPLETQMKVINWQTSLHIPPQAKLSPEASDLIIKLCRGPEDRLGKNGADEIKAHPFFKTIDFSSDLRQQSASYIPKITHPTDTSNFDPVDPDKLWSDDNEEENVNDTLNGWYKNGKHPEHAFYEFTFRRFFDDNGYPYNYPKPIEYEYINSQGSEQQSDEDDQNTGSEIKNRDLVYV

[4] = biological target: T3, Cysteine--tRNA ligase, cytoplasmic (Homo sapiens, UniProt P49589)
T3 sequence (P49589 whole entry): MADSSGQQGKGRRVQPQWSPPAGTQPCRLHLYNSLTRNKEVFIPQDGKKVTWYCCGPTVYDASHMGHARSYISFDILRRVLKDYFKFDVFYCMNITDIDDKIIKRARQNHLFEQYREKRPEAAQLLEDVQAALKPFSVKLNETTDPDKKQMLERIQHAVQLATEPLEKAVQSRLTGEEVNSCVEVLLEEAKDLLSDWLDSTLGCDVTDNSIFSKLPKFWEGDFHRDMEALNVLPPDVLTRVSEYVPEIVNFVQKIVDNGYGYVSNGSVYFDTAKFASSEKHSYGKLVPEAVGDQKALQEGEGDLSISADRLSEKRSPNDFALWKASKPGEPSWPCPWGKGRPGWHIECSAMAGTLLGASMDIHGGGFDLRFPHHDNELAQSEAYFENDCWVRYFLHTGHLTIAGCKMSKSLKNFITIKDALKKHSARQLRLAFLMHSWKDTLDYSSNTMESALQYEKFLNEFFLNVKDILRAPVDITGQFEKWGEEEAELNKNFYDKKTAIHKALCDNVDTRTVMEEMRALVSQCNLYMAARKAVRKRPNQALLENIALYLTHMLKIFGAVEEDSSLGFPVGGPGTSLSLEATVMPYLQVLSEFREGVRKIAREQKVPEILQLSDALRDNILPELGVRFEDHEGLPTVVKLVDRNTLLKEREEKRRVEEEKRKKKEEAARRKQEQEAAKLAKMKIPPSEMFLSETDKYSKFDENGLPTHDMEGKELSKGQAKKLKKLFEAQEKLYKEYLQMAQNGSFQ

[5] = biological target: T4, Probable ATP-dependent RNA helicase DDX6 (Homo sapiens, UniProt P26196)
T4 sequence (P26196 whole entry): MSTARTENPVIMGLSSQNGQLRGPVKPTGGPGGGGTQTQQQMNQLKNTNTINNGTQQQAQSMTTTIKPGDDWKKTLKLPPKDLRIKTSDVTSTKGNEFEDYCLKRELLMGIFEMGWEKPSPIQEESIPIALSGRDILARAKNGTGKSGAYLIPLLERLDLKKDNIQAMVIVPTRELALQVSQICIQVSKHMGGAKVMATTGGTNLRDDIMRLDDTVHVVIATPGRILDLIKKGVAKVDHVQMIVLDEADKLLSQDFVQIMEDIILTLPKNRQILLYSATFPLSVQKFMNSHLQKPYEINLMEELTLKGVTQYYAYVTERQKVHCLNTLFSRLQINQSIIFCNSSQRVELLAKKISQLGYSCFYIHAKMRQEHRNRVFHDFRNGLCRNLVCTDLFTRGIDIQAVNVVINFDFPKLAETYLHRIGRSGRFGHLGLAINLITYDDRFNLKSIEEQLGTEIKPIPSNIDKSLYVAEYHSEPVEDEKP

[6] = biological target: Mitogen-activated protein kinase 3 (Homo sapiens, UniProt P27361)
Sequence of Mitogen-activated protein kinase 3 (P27361 whole entry): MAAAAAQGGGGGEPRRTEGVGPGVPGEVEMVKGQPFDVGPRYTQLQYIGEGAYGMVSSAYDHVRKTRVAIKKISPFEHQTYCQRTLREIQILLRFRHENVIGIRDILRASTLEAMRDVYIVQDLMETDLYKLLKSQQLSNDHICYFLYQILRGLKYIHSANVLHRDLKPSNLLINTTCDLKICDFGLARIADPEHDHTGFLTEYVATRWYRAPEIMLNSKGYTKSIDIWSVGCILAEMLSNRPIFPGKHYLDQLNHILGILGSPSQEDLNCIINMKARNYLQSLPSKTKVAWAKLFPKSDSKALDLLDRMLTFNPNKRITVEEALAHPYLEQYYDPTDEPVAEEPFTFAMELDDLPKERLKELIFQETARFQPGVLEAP

[7] = biological target: Serine/threonine-protein kinase B-raf (Homo sapiens, UniProt P15056)
Sequence of Serine/threonine-protein kinase B-raf (P15056 whole entry): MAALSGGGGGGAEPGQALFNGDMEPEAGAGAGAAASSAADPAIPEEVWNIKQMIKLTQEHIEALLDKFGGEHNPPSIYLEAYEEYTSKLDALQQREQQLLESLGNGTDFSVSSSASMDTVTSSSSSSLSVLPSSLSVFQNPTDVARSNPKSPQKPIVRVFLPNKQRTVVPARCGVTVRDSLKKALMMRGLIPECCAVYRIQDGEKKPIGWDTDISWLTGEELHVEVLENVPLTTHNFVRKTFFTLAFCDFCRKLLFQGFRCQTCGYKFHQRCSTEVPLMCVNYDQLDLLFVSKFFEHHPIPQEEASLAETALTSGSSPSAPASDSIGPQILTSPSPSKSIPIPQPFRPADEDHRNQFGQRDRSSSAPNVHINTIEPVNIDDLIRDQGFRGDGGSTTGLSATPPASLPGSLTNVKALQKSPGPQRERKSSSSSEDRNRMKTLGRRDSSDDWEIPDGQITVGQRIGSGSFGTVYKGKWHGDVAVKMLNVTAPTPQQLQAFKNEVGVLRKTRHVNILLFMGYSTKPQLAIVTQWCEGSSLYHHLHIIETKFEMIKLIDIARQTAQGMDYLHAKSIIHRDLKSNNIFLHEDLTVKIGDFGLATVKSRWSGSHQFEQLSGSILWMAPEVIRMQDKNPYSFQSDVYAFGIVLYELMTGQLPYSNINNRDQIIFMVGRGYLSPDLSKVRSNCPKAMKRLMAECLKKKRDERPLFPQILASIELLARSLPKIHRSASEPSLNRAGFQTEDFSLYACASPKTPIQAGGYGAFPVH

Midasin = Midasin (Homo sapiens, UniProt Q9NU22)
[8] = biological target: Mitotic checkpoint serine/threonine-protein kinase BUB1 (Homo sapiens, UniProt O43683)
Sequence of Mitotic checkpoint serine/threonine-protein kinase BUB1 (O43683 whole entry): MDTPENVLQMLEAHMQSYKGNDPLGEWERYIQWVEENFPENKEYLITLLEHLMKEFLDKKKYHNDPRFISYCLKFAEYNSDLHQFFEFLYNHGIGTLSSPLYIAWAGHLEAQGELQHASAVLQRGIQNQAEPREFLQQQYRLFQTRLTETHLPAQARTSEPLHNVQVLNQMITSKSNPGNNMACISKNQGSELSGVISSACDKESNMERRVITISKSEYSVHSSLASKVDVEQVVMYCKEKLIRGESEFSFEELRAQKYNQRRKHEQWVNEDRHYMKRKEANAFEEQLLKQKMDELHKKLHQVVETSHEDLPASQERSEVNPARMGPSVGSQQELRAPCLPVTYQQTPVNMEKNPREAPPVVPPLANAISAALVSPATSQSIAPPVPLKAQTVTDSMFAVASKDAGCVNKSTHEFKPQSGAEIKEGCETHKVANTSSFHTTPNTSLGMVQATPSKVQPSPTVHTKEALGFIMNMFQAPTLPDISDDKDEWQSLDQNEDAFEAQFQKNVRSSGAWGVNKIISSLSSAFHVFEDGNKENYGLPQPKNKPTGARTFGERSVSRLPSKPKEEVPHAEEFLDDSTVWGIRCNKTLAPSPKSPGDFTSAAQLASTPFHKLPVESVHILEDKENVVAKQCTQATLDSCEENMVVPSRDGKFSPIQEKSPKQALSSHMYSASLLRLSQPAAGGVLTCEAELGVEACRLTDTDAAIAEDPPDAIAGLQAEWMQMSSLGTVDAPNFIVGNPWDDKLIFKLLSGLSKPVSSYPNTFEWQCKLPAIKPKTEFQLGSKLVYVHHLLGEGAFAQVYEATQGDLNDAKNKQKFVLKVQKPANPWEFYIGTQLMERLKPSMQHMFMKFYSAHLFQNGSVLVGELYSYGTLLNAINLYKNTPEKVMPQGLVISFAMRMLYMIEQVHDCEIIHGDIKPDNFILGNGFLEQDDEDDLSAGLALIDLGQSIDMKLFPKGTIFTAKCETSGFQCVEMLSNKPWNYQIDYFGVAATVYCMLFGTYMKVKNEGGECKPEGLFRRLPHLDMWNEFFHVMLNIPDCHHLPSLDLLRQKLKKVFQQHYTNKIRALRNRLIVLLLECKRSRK
Also: in the data inactive means no Kd found up to 30 µM.

Sequence of 5'-AMP-activated protein kinase catalytic subunit alpha-1 (Q13131 whole entry): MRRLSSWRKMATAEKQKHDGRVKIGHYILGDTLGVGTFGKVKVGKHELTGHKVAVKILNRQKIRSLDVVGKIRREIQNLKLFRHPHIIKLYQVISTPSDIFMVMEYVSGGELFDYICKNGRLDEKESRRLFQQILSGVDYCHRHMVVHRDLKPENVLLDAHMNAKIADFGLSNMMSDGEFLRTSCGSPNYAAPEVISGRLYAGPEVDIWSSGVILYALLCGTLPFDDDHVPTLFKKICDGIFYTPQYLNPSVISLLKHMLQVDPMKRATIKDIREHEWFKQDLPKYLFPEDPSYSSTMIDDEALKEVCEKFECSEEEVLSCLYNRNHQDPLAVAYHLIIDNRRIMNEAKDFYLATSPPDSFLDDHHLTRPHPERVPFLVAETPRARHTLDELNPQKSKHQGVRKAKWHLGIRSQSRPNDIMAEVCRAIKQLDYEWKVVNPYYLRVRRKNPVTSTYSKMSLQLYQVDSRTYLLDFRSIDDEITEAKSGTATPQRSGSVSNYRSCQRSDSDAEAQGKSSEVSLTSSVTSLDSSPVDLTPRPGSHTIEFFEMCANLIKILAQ
Sequence of Ribosomal protein S6 kinase alpha-4 (O75676 whole entry): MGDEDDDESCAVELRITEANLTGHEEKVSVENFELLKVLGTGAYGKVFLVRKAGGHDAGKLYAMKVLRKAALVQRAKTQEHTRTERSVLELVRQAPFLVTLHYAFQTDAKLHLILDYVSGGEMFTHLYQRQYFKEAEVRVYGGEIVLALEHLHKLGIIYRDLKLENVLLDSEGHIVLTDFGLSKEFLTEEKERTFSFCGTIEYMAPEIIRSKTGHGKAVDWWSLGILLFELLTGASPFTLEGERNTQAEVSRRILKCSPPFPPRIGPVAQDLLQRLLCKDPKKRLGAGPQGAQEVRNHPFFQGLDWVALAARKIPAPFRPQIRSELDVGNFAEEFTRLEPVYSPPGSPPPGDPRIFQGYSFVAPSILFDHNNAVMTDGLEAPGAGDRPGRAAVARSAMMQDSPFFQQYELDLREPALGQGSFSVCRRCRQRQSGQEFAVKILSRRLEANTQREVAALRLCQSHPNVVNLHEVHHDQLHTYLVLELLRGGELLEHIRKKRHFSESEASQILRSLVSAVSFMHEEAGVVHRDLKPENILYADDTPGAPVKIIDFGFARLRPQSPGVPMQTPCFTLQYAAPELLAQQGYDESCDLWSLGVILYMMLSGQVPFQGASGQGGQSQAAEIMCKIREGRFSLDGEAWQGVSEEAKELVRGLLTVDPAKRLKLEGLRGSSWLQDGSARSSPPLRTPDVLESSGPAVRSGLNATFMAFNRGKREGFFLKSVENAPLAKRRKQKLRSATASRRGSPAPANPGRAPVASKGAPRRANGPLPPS

For `Cc1cc(Nc2ncc(Cl)c(Nc3ccccc3S(=O)(=O)C(C)C)n2)c(OC(C)C)cc1C1CCNCC1` [CERITINIB], the Kd [1] was > 30 µM (inactive), the Kd [2] was > 30 µM (inactive) and the Kd (ADP/ATP translocase 2) was > 30 µM (inactive). For the same molecule, the Kd [3] was > 30 µM (inactive), the Kd [4] was > 30 µM (inactive) and the Kd [5] was > 30 µM (inactive). The Kd [6] was > 30 µM (inactive), the Kd [7] was > 30 µM (inactive) and the Kd (Midasin) was > 30 µM (inactive). The Kd [8] was > 30 µM (inactive).
For `COc1c(OCCCN2CCOCC2)ccc2c1N=C(NC(=O)c1cnc(N)nc1)N1CCN=C21` [COPANLISIB], the Kd [1] was > 30 µM (inactive), the Kd [2] was > 30 µM (inactive) and the Kd (ADP/ATP translocase 2) was > 30 µM (inactive). The Kd [3] was > 30 µM (inactive), the Kd [4] was > 30 µM (inactive) and the Kd [5] was > 30 µM (inactive). The Kd [6] was > 30 µM (inactive), the Kd [7] was > 30 µM (inactive) and the Kd (Midasin) was > 30 µM (inactive). The Kd [8] was > 30 µM (inactive).
For `C#Cc1cccc(Nc2ncnc3cc(OC)c(OCCCCCCC(=O)NO)cc23)c1` [CUDC-101], the Kd [1] was > 30 µM (inactive), the Kd [2] was > 30 µM (inactive) and the Kd (ADP/ATP translocase 2) was > 30 µM (inactive). For the same molecule, the Kd [3] was > 30 µM (inactive), the Kd [4] was > 30 µM (inactive) and the Kd [5] was > 30 µM (inactive). For the same molecule, the Kd [6] was > 30 µM (inactive), the Kd [7] was > 30 µM (inactive) and the Kd (Midasin) was > 30 µM (inactive). For the same molecule, the Kd [8] was 0.961 µM (active).
For `Cc1cccc(-c2nn3c(c2-c2ccnc4ccc(C(N)=O)cc24)CCC3)n1` [GALUNISERTIB], the Kd [1] was > 30 µM (inactive), the Kd [2] was > 30 µM (inactive) and the Kd (ADP/ATP translocase 2) was > 30 µM (inactive). The Kd [3] was > 30 µM (inactive), the Kd [4] was > 30 µM (inactive) and the Kd [5] was > 30 µM (inactive). For the same molecule, the Kd [6] was > 30 µM (inactive), the Kd [7] was > 30 µM (inactive) and the Kd (Midasin) was > 30 µM (inactive). For the same molecule, the Kd [8] was > 30 µM (inactive).
In the case of `CCn1cc(-c2ccnc3[nH]c(-c4cccc(CN(C)C)c4)cc23)c(-c2ccc(NC(=O)N(C)C)cc2)n1` [GSK-1070916], the Kd [1] is reported as > 30 µM (inactive), the Kd [2] is reported as > 30 µM (inactive) and the Kd (ADP/ATP translocase 2) is reported as > 30 µM (inactive). For the same molecule, the Kd [3] was > 30 µM (inactive), the Kd [4] was > 30 µM (inactive) and the Kd [5] was > 30 µM (inactive). For the same molecule, the Kd [6] was > 30 µM (inactive), the Kd [7] was > 30 µM (inactive) and the Kd (Midasin) was > 30 µM (inactive). The Kd [8] was > 30 µM (inactive).
With `CN(C[C@@H]1COCCO1)S(=O)(=O)Nc1ccc2ccc3ncc(-c4cnn(C)c4)cc3c(=O)c2c1` [MK-2461] the Kd [1] was > 30 µM (inactive), the Kd [2] was > 30 µM (inactive) and the Kd (ADP/ATP translocase 2) was > 30 µM (inactive). The Kd [3] was > 30 µM (inactive), the Kd [4] was > 30 µM (inactive) and the Kd [5] was > 30 µM (inactive). For the same molecule, the Kd [6] was > 30 µM (inactive), the Kd [7] was > 30 µM (inactive) and the Kd (Midasin) was > 30 µM (inactive). The Kd [8] was > 30 µM (inactive).
With `Cn1cc(-c2cnc3ccc4ccc(CS(=O)(=O)NCc5ccccn5)cc4c(=O)c3c2)cn1` [MK-8033] the Kd [1] was > 30 µM (inactive), the Kd [2] was > 30 µM (inactive) and the Kd (ADP/ATP translocase 2) was > 30 µM (inactive). The Kd [3] was > 30 µM (inactive), the Kd [4] was > 30 µM (inactive) and the Kd [5] was > 30 µM (inactive). The Kd [6] was > 30 µM (inactive), the Kd [7] was > 30 µM (inactive) and the Kd (Midasin) was > 30 µM (inactive). For the same molecule, the Kd [8] was > 30 µM (inactive).
For `FC(F)(F)c1ccc(/C=C/c2nc(COc3ccc(CCCCn4ccnn4)cc3)co2)cc1` [MUBRITINIB], the Kd [1] was > 30 µM (inactive), the Kd [2] was > 30 µM (inactive) and the Kd (ADP/ATP translocase 2) was > 30 µM (inactive). For the same molecule, the Kd [3] was > 30 µM (inactive), the Kd [4] was > 30 µM (inactive) and the Kd [5] was > 30 µM (inactive). For the same molecule, the Kd [6] was > 30 µM (inactive), the Kd [7] was > 30 µM (inactive) and the Kd (Midasin) was > 30 µM (inactive). The Kd [8] was > 30 µM (inactive).
With `CCOc1cc2ncc(C#N)c(Nc3ccc(F)c(Cl)c3)c2cc1NC(=O)/C=C/CN(C)C` [PELITINIB] the Kd [1] was > 30 µM (inactive), the Kd [2] was > 30 µM (inactive) and the Kd (ADP/ATP translocase 2) was > 30 µM (inactive). The Kd [3] was > 30 µM (inactive), the Kd [4] was > 30 µM (inactive) and the Kd [5] was > 30 µM (inactive). The Kd [6] was > 30 µM (inactive), the Kd [7] was > 30 µM (inactive) and the Kd (Midasin) was > 30 µM (inactive). For the same molecule, the Kd [8] was > 30 µM (inactive).
In the case of `N#CC1(c2ccc(NC(=O)c3cccnc3NCc3ccncc3)cc2)CCCC1` [RIVOCERANIB], the Kd [1] is reported as > 30 µM (inactive), the Kd [2] is reported as > 30 µM (inactive) and the Kd (ADP/ATP translocase 2) is reported as > 30 µM (inactive). For the same molecule, the Kd [3] was > 30 µM (inactive), the Kd [4] was > 30 µM (inactive) and the Kd [5] was > 30 µM (inactive). For the same molecule, the Kd [6] was > 30 µM (inactive), the Kd [7] was > 30 µM (inactive) and the Kd (Midasin) was > 30 µM (inactive). The Kd [8] was > 30 µM (inactive).
`O=c1[nH]ccc2cc(OC3CCNCC3)ccc12` [SAR-407899 FREE BASE] was tested, and the Kd [1] was > 30 µM (inactive), the Kd [2] was > 30 µM (inactive) and the Kd (ADP/ATP translocase 2) was > 30 µM (inactive). The Kd [3] was > 30 µM (inactive), the Kd [4] was > 30 µM (inactive) and the Kd [5] was > 30 µM (inactive). For the same molecule, the Kd [6] was > 30 µM (inactive), the Kd [7] was > 30 µM (inactive) and the Kd (Midasin) was > 30 µM (inactive). The Kd [8] was > 30 µM (inactive).
With `CO[C@H]1C[C@@H]2CC[C@@H](C)[C@@](O)(O2)C(=O)C(=O)N2CCCC[C@H]2C(=O)O[C@H]([C@H](C)C[C@@H]2CC[C@@H](O)[C@H](OC)C2)CC(=O)[C@H](C)/C=C(\C)[C@@H](O)[C@@H](OC)C(=O)[C@H](C)C[C@H](C)/C=C/C=C/C=C/1C` [SIROLIMUS] the Kd [1] was > 30 µM (inactive), the Kd [2] was > 30 µM (inactive) and the Kd (ADP/ATP translocase 2) was > 30 µM (inactive). The Kd [3] was > 30 µM (inactive), the Kd [4] was > 30 µM (inactive) and the Kd [5] was > 30 µM (inactive). For the same molecule, the Kd [6] was > 30 µM (inactive), the Kd [7] was > 30 µM (inactive) and the Kd (Midasin) was > 30 µM (inactive). The Kd [8] was > 30 µM (inactive).
